Experimental data published in the NIST ThermoML archive (doi:10.1016/j.jct.2019.02.028).

Assay: xn = mol fraction of the nth substance listed
Conditions: Gas, Burnett expansion method

C=C(F)C(F)(F)F [2,3,3,3-tetrafluoro-1-propene] + FCF
Conditions | mass density [kg/m3]
353.42 K, 2273.3 kPa, x2 = 0.259 | 105.33
353.43 K, 588.71 kPa, x2 = 0.874 | 12.5
353.43 K, 1253 kPa, x2 = 0.874 | 28.21
353.47 K, 861.21 kPa, x2 = 0.874 | 18.78
358.31 K, 1928.5 kPa, x2 = 0.698 | 54.05
358.32 K, 1240.6 kPa, x2 = 0.449 | 40.46
358.33 K, 586.28 kPa, x2 = 0.449 | 17.94
358.33 K, 2665 kPa, x2 = 0.698 | 81.18
358.34 K, 639.13 kPa, x2 = 0.698 | 15.95
358.34 K, 1357.4 kPa, x2 = 0.698 | 35.99
358.34 K, 1994 kPa, x2 = 0.119 | 94.76
358.34 K, 2418.3 kPa, x2 = 0.449 | 91.37
358.34 K, 3167.9 kPa, x2 = 0.449 | 137.24
358.34 K, 3474 kPa, x2 = 0.874 | 95.77
358.35 K, 591.83 kPa, x2 = 0.259 | 20.68
358.35 K, 858.88 kPa, x2 = 0.449 | 26.94
358.35 K, 937.43 kPa, x2 = 0.698 | 23.96
358.35 K, 1463 kPa, x2 = 0.119 | 63.06
358.35 K, 1759.6 kPa, x2 = 0.449 | 60.82
358.35 K, 2335.1 kPa, x2 = 0.259 | 105.31
358.35 K, 2564.1 kPa, x2 = 0.874 | 63.62
358.35 K, 3529.2 kPa, x2 = 0.698 | 121.89
358.36 K, 1237.2 kPa, x2 = 0.259 | 46.66
358.36 K, 1730.8 kPa, x2 = 0.259 | 70.06
358.36 K, 1828.8 kPa, x2 = 0.874 | 42.36
358.36 K, 2579.2 kPa, x2 = 0.119 | 142.43
358.36 K, 2999.2 kPa, x2 = 0.259 | 158.78
358.36 K, 4405.8 kPa, x2 = 0.698 | 183.14
358.36 K, 4479.7 kPa, x2 = 0.874 | 144.13
358.37 K, 719.85 kPa, x2 = 0.119 | 27.94
358.37 K, 862.94 kPa, x2 = 0.259 | 31.07
358.37 K, 1037.7 kPa, x2 = 0.119 | 41.96
358.38 K, 1274.6 kPa, x2 = 0.874 | 28.2
358.38 K, 3076.3 kPa, x2 = 0.119 | 213.92
358.39 K, 597.87 kPa, x2 = 0.874 | 12.5
358.41 K, 875.21 kPa, x2 = 0.874 | 18.78
363.26 K, 1966.8 kPa, x2 = 0.698 | 54.03
363.26 K, 2727.3 kPa, x2 = 0.698 | 81.16
363.27 K, 1262.7 kPa, x2 = 0.449 | 40.45
363.28 K, 595.28 kPa, x2 = 0.449 | 17.93
363.28 K, 648.9 kPa, x2 = 0.698 | 15.95
363.28 K, 2476.7 kPa, x2 = 0.449 | 91.33
363.28 K, 3265.9 kPa, x2 = 0.449 | 137.17
363.28 K, 3632.6 kPa, x2 = 0.698 | 121.86
363.28 K, 4041.7 kPa, x2 = 0.449 | 205.81
363.29 K, 1381.4 kPa, x2 = 0.698 | 35.97
363.29 K, 1795.1 kPa, x2 = 0.449 | 60.79
363.29 K, 1863 kPa, x2 = 0.874 | 42.34
363.29 K, 2043.8 kPa, x2 = 0.119 | 94.71
363.29 K, 2396.3 kPa, x2 = 0.259 | 105.29
363.29 K, 3100.7 kPa, x2 = 0.259 | 158.62
363.29 K, 3726.8 kPa, x2 = 0.259 | 238.72
363.29 K, 4575.5 kPa, x2 = 0.698 | 183.09
363.3 K, 601.42 kPa, x2 = 0.259 | 20.68
363.3 K, 872.75 kPa, x2 = 0.449 | 26.93
363.3 K, 1296.1 kPa, x2 = 0.874 | 28.19
363.3 K, 1768.3 kPa, x2 = 0.259 | 70.06
363.3 K, 2619.4 kPa, x2 = 0.874 | 63.6
363.3 K, 2663.3 kPa, x2 = 0.119 | 142.34
363.3 K, 3565.6 kPa, x2 = 0.874 | 95.7
363.3 K, 4630.5 kPa, x2 = 0.874 | 143.96
363.31 K, 731.75 kPa, x2 = 0.119 | 27.93
363.31 K, 952.86 kPa, x2 = 0.698 | 23.95
363.31 K, 1056.3 kPa, x2 = 0.119 | 41.95
363.31 K, 1260.4 kPa, x2 = 0.259 | 46.66
363.31 K, 3222.3 kPa, x2 = 0.119 | 213.79
363.32 K, 877.52 kPa, x2 = 0.259 | 31.06
363.32 K, 1493.6 kPa, x2 = 0.119 | 63.03
363.33 K, 606.82 kPa, x2 = 0.874 | 12.5
363.33 K, 888.85 kPa, x2 = 0.874 | 18.77
368.2 K, 2004.8 kPa, x2 = 0.698 | 54.02
368.22 K, 604.3 kPa, x2 = 0.449 | 17.93
368.22 K, 658.7 kPa, x2 = 0.698 | 15.94
368.22 K, 1285 kPa, x2 = 0.449 | 40.44
368.22 K, 2534.6 kPa, x2 = 0.449 | 91.28
368.22 K, 2789.6 kPa, x2 = 0.698 | 81.13
368.22 K, 3362.6 kPa, x2 = 0.449 | 137.11
368.22 K, 4205.2 kPa, x2 = 0.449 | 205.77
368.23 K, 967.59 kPa, x2 = 0.698 | 23.94
368.23 K, 1830.4 kPa, x2 = 0.449 | 60.77
368.23 K, 3201.4 kPa, x2 = 0.259 | 158.47
368.23 K, 3655.1 kPa, x2 = 0.874 | 95.63
368.23 K, 3734.8 kPa, x2 = 0.698 | 121.83
368.23 K, 3898.2 kPa, x2 = 0.259 | 238.37
368.23 K, 4743.3 kPa, x2 = 0.698 | 183.03
368.24 K, 610.69 kPa, x2 = 0.259 | 20.68
368.24 K, 1317.5 kPa, x2 = 0.874 | 28.18
368.24 K, 1405.2 kPa, x2 = 0.698 | 35.96
368.24 K, 1523.3 kPa, x2 = 0.119 | 63.01
368.24 K, 1805.3 kPa, x2 = 0.259 | 70.05
368.24 K, 1897.2 kPa, x2 = 0.874 | 42.33
368.24 K, 2093.2 kPa, x2 = 0.119 | 94.66
368.24 K, 2457.3 kPa, x2 = 0.259 | 105.26
368.24 K, 2674.2 kPa, x2 = 0.874 | 63.58
368.24 K, 4778.9 kPa, x2 = 0.874 | 143.8
368.25 K, 743.56 kPa, x2 = 0.119 | 27.92
368.25 K, 886.98 kPa, x2 = 0.449 | 26.92
368.25 K, 1075 kPa, x2 = 0.119 | 41.94
368.25 K, 1283.3 kPa, x2 = 0.259 | 46.65
368.25 K, 2746.3 kPa, x2 = 0.119 | 142.24
368.25 K, 4383.2 kPa, x2 = 0.259 | 361.18
368.26 K, 891.98 kPa, x2 = 0.259 | 31.06
368.26 K, 3365.6 kPa, x2 = 0.119 | 213.65
368.27 K, 3774.3 kPa, x2 = 0.119 | 320.57
368.28 K, 615.74 kPa, x2 = 0.874 | 12.49
368.29 K, 902.66 kPa, x2 = 0.874 | 18.76
373.13 K, 2042.5 kPa, x2 = 0.698 | 54
373.14 K, 613.24 kPa, x2 = 0.449 | 17.92
373.15 K, 668.24 kPa, x2 = 0.698 | 15.94
373.15 K, 1428.2 kPa, x2 = 0.698 | 35.95
373.15 K, 2592.1 kPa, x2 = 0.449 | 91.24
373.15 K, 4365.9 kPa, x2 = 0.449 | 205.72
373.15 K, 4909.8 kPa, x2 = 0.698 | 182.98
373.16 K, 982.7 kPa, x2 = 0.698 | 23.94
373.16 K, 2850.9 kPa, x2 = 0.698 | 81.11
373.16 K, 3458.2 kPa, x2 = 0.449 | 137.04
373.16 K, 3835.9 kPa, x2 = 0.698 | 121.81
373.17 K, 1307 kPa, x2 = 0.449 | 40.43
373.17 K, 1552.9 kPa, x2 = 0.119 | 62.98
373.17 K, 1842 kPa, x2 = 0.259 | 70.05
373.17 K, 2141.9 kPa, x2 = 0.119 | 94.62
373.17 K, 3744.3 kPa, x2 = 0.874 | 95.56
